Assay results: ChEMBL document CHEMBL1158234, “Halistanol disulfate B, a novel sulfated sterol from the sponge Pachastrella sp.: inhibitor of endothelin converting enzyme” (J Nat Prod, 1996)
The source made the active and inactive calls. The rule behind the calls is not given here.

What was measured:
COS = test: (§1) Inhibition of recombinant ECE expressed in african green monkey COS cells assessed as endothelin formation by EIA assay; format: cell-based
[1] = as §1; format: cell-based

| SMILES | Activity (COS) | IC50 [1] [µM] |
| --- | --- | --- |
| O=C(NCCSSCCNC(=O)/C(Cc1cccc(OS(=O)(=O)O)c1Br)=N/O)/C(Cc1cc(Br)c(O)c(-c2ccc(C/C(=N\O)C(=O)NCCSSCCNC(=O)/C(Cc3ccc(OS(=O)(=O)O)c(Br)c3)=N/O)c(Br)c2O)c1)=N/O | Active | – |
| C=CCCC[C@@H](C)[C@H]1CC[C@H]2[C@@H]3CC[C@H]4C[C@H](O)[C@@H](O)C[C@]4(C)[C@H]3CC[C@]12C | inactive | – |
| C=CCCC[C@@H](C)[C@H]1CC[C@H]2[C@@H]3CC[C@H]4C[C@H](OS(=O)(=O)O)[C@@H](OS(=O)(=O)O)C[C@]4(C)[C@H]3CC[C@]12C [HALISTANOL DISULFATE B] | – | 2.1 |
| C[C@H](CC[C@H](C)C(C)(C)C)[C@H]1CC[C@H]2[C@@H]3C[C@H](OS(=O)(=O)O)[C@H]4C[C@H](OS(=O)(=O)O)[C@@H](OS(=O)(=O)O)C[C@]4(C)[C@H]3CC[C@]12C | Active | – |
| O=C(NCCSSCCNC(=O)/C(Cc1ccc(Br)c(OS(=O)(=O)O)c1)=N/O)/C(Cc1ccc(OS(=O)(=O)O)c(Br)c1)=N/O | Active | – |
